{"source": "paper doi:10.1101/2022.02.23.481604v2", "about": "(biorxiv, 2022)", "assay_in_all_cases": "cAMP formation in membranes", "key": {"[1]": {"target": "mAC7 activated by Gsα (Q227L) (Homo sapiens, UniProt P51828)", "sequence (P63092 2-394 Q227L partner, one chain of several)": "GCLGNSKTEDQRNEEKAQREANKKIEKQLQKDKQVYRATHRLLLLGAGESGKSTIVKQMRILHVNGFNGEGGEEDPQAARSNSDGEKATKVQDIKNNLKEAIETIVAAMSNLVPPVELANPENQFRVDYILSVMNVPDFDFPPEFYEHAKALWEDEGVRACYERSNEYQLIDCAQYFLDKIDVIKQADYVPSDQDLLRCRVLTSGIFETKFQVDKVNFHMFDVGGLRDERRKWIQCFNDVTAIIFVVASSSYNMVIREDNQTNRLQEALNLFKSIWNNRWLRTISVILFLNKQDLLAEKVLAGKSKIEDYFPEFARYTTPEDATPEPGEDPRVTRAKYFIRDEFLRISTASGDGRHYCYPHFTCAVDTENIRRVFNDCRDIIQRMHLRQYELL", "type": "biochemical"}, "[2]": {"target": "mAC6 activated by Gsα (Q227L) (Homo sapiens, UniProt O43306)", "sequence (O43306 whole entry, stated change not applied)": "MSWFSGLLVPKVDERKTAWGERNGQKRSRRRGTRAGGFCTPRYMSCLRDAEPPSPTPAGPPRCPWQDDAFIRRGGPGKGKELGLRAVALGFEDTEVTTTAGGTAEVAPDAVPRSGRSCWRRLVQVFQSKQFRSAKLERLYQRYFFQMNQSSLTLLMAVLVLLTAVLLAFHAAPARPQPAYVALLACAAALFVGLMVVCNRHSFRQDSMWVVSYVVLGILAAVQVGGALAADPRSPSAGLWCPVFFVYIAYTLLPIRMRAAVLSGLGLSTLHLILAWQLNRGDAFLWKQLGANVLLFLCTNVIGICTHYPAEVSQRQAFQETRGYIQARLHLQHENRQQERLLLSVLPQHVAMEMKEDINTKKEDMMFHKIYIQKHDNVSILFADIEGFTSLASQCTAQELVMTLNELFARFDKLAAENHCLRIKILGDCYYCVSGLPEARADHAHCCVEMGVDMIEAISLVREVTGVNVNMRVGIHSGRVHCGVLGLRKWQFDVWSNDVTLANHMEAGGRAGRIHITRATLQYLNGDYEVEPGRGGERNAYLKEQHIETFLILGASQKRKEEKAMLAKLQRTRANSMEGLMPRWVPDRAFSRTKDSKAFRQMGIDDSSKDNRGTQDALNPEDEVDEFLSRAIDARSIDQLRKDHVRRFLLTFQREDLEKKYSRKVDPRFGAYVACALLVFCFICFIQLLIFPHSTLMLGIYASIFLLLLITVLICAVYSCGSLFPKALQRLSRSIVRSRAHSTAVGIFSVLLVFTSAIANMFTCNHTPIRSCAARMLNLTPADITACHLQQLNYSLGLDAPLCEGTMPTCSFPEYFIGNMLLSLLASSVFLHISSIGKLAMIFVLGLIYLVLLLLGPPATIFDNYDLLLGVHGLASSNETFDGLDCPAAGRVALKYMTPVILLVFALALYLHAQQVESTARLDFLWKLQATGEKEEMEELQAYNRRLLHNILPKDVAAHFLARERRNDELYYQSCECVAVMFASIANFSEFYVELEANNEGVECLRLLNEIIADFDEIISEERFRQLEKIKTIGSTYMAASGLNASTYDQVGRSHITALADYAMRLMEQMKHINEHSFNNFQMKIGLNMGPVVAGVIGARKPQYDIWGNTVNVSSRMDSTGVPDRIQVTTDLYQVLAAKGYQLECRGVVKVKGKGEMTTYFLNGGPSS", "sequence (P63092 2-394 Q227L partner)": "as the sequence (P63092 2-394 Q227L partner, one chain of several) above", "type": "biochemical"}, "[3]": {"target": "mAC9 activated by Gsα (Q227L) (Homo sapiens, UniProt O60503)", "sequence (O60503 whole entry, stated change not applied)": "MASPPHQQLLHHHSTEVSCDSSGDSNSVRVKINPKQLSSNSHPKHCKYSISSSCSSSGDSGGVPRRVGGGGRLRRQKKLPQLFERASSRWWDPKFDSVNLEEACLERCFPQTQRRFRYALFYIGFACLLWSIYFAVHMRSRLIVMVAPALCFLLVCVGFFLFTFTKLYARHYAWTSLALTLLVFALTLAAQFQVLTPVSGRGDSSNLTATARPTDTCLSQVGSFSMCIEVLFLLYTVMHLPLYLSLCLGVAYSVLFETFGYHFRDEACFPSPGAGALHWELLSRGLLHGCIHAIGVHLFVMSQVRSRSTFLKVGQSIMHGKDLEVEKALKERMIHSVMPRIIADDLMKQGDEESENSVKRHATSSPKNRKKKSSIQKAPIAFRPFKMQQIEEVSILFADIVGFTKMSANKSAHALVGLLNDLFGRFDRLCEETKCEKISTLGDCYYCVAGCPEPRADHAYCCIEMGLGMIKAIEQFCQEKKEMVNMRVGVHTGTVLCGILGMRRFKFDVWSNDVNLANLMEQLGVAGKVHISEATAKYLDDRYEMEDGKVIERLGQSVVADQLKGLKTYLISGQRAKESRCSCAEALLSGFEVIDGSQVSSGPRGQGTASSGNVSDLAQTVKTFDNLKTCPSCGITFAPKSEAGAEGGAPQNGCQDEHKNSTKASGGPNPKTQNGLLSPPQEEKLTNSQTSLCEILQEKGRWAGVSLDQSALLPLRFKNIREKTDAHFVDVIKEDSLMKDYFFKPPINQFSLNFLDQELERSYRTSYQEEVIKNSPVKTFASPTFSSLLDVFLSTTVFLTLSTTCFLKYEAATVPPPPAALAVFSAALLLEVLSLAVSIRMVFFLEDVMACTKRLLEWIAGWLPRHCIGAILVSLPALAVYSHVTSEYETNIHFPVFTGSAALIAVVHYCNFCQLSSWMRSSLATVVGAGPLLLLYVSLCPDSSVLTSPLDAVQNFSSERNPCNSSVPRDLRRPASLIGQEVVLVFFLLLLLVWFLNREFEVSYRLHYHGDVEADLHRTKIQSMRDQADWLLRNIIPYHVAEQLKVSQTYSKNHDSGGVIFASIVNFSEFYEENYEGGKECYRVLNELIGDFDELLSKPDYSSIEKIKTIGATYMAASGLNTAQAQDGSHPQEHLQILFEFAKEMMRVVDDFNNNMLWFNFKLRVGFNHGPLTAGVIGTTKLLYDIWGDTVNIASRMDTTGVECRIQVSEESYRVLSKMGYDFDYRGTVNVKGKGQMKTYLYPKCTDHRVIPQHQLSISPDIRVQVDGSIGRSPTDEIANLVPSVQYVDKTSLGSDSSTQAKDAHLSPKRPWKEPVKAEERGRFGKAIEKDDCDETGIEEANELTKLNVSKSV", "sequence (P63092 2-394 Q227L partner)": "as the sequence (P63092 2-394 Q227L partner, one chain of several) above", "type": "biochemical"}, "[4]": {"target": "mAC3 activated by Gsα (Q227L) (Homo sapiens, UniProt O60266)", "sequence (P63092 2-394 Q227L partner, one chain of several)": "as above", "type": "biochemical"}, "[5]": {"target": "T1, mAC7 (Homo sapiens, UniProt P51828)", "T1 sequence (P51828 1-1080)": "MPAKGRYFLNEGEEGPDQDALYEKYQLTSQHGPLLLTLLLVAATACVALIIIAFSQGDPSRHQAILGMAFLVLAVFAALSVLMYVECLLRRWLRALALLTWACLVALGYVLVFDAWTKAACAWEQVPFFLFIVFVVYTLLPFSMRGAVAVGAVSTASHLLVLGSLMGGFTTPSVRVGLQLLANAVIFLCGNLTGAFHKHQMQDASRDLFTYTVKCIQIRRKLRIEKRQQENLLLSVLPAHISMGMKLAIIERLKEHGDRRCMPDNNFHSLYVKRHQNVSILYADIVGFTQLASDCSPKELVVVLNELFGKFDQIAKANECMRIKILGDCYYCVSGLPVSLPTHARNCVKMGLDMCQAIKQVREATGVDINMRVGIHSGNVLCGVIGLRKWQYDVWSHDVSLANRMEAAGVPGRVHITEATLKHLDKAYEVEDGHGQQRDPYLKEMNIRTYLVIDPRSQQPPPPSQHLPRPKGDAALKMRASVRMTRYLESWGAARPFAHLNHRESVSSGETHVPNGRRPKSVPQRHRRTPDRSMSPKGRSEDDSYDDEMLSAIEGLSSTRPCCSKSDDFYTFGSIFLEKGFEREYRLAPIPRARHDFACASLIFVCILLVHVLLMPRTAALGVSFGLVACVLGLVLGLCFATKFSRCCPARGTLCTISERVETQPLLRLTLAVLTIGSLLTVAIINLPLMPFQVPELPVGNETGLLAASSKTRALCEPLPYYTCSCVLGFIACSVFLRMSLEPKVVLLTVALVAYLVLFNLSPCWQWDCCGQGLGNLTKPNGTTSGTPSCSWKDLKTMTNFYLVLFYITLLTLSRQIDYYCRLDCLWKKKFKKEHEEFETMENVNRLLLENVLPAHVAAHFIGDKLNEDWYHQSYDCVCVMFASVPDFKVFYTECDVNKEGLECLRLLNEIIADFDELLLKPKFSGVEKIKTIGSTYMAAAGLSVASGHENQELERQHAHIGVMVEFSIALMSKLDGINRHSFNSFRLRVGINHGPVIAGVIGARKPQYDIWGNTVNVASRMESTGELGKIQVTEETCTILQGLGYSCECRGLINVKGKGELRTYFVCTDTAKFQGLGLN", "type": "biochemical"}, "[6]": {"target": "mAC1 (Homo sapiens, UniProt Q08828)", "sequence (Q08828 whole entry)": "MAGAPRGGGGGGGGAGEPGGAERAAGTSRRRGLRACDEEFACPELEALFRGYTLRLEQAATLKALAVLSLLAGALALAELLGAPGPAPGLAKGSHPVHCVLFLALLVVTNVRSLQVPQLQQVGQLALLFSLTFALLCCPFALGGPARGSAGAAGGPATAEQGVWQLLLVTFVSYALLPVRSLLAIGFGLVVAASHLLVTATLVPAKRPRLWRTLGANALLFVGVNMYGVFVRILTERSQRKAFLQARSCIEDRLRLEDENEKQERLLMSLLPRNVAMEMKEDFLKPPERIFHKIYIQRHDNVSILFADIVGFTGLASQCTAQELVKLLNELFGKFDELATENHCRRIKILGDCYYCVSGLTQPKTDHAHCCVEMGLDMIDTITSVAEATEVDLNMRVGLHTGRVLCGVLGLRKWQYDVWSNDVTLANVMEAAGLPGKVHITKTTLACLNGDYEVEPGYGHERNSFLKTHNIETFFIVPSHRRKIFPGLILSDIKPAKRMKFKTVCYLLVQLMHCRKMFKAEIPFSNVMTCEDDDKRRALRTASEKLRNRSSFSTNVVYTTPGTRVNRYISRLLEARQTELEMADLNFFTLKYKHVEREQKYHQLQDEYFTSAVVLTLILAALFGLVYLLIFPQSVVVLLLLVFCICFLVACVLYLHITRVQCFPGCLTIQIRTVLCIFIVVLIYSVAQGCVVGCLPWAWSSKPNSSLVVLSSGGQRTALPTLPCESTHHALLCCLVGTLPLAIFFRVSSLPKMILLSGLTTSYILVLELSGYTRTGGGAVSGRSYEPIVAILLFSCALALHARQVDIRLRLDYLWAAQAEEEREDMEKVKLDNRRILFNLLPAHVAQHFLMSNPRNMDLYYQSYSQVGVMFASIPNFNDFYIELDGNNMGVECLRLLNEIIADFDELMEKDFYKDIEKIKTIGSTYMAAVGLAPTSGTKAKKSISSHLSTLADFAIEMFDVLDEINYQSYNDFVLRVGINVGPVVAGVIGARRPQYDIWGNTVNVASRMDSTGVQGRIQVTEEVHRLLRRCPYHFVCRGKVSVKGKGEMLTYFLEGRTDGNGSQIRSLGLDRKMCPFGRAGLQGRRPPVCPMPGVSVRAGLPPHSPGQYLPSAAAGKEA", "type": "biochemical"}, "[7]": {"substrate": "Nc1ncnc2c1ncn2[C@@H]1O[C@H](COP(=O)(O)OP(=O)(O)OP(=O)(O)O)[C@@H](O)[C@H]1O", "type": "biochemical, Homo sapiens", "conditions": "without SDPA, Gsα presence inferred from Vmax, Mg2+, pH 7.5"}}, "note": "Counter-ions that a name gives are not always drawn."}
{"molecule": "CC/C=C\\C/C=C\\C/C=C\\C/C=C\\C/C=C\\C/C=C\\CCC(=O)O[C@H](COC(=O)CCCCCCCCCCCCCCCCC)COP(=O)(O)O", "note": "[SDPA, 1-stearoyl-2-docosahexaenoyl-sn-glycero-3-phosphate (sodium salt)]", "values": [{"measurement": "EC50", "setting": "[1]", "result": 700, "unit": "nM"}, {"measurement": "EC50", "setting": "[2]", "result": 700, "unit": "nM"}, {"measurement": "EC50", "setting": "[3]", "result": 700, "unit": "nM"}, {"measurement": "EC50", "setting": "[4]", "result": 900, "unit": "nM"}]}
{"molecule": "CC/C=C\\C/C=C\\C/C=C\\C/C=C\\C/C=C\\C/C=C\\CCC(=O)OC[C@H](COP(=O)(O)O)OC(=O)CC/C=C\\C/C=C\\C/C=C\\C/C=C\\C/C=C\\C/C=C\\CC", "note": "[DDPA, 1,2-didocosahexaenoyl-sn-glycero-3-phosphate (sodium salt)]", "values": [{"measurement": "EC50", "setting": "[4]", "result": 1400, "unit": "nM"}]}
{"molecule": "CC/C=C\\C/C=C\\C/C=C\\C/C=C\\C/C=C\\C/C=C\\CCC(=O)O[C@H](COC(=O)CCCCCCCCCCCCCCC)COP(=O)(O)O", "note": "[PDPA, 1-palmitoyl-2-docosahexaenoyl-sn-glycero-3-phosphate (sodium salt)]", "values": [{"measurement": "EC50", "setting": "[4]", "result": 1300, "unit": "nM"}]}
{"molecule": "CC/C=C\\C/C=C\\C/C=C\\C/C=C\\C/C=C\\C/C=C\\CCC(=O)O[C@H](COC(=O)CCCCCCCCCCCCCCCCC)COP(=O)(O)OC[C@H](N)C(=O)O", "note": "[SDPS, 1-stearoyl-2-docosahexaenoyl-sn-glycero-3-phospho-L-serine]", "values": [{"measurement": "EC50", "setting": "[4]", "result": 1200, "unit": "nM"}]}
{"molecule": "CCCCC/C=C\\C/C=C\\C/C=C\\C/C=C\\CCCC(=O)O[C@H](COC(=O)CCCCCCCCCCCCCCCCC)COP(=O)(O)O", "note": "[SAPA, 1-stearoyl-2-arachidonoyl-sn-glycero-3-phosphate (sodium salt)]", "values": [{"measurement": "EC50", "setting": "[4]", "result": 4800, "unit": "nM"}]}
{"molecule": "C=C[C@@]1(C)CC(=O)[C@]2(O)[C@@]3(C)[C@@H](O)CCC(C)(C)[C@@H]3[C@H](O)[C@H](OC(C)=O)[C@@]2(C)O1", "note": "[forskolin]", "values": [{"measurement": "EC50", "setting": "[5]", "result": 512000, "unit": "nM"}, {"measurement": "EC50", "setting": "[6]", "result": 2000, "unit": "nM"}]}
{"molecule": "mAC3 activated by Gsα (Q227L) (Homo sapiens) (protein) MPRNQGFSEPEYSAEYSAEYSVSLPSDPDRGVGRTHEISVRNSGSCLCLPRFMRLTFVPESLENLYQTYFKRQRHETLLVLVVFAALFDCYVVVMCAVVFSSDKLASLAVAGIGLVLDIILFVLCKKGLLPDRVTRRVLPYVLWLLITAQIFSYLGLNFARAHAASDTVGWQVFFVFSFFITLPLSLSPIVIISVVSCVVHTLVLGVTVAQQQQEELKGMQLLREILANVFLYLCAIAVGIMSYYMADRKHRKAFLEARQSLEVKMNLEEQSQQQENLMLSILPKHVADEMLKDMKKDESQKDQQQFNTMYMYRHENVSILFADIVGFTQLSSACSAQELVKLLNELFARFDKLAAKYHQLRIKILGDCYYCICGLPDYREDHAVCSILMGLAMVEAISYVREKTKTGVDMRVGVHTGTVLGGVLGQKRWQYDVWSTDVTVANKMEAGGIPGRVHISQSTMDCLKGEFDVEPGDGGSRCDYLEEKGIETYLIIASKPEVKKTATQNGLNGSALPNGAPASSKSSSPALIETKEPNGSAHSSGSTSEKPEEQDAQADNPSFPNPRRRLRLQDLADRVVDASEDEHELNQLLNEALLERESAQVVKKRNTFLLSMRFMDPEMETRYSVEKEKQSGAAFSCSCVVLLCTALVEILIDPWLMTNYVTFMVGEILLLILTICSLAAIFPRAFPKKLVAFSTWIDRTRWARNTWAMLAIFILVMANVVDMLSCLQYYTGPSNATAGMETEGSCLENPKYYNYVAVLSLIATIMLVQVSHMVKLTLMLLVAGAVATINLYAWRPVFDEYDHKRFREHDLPMVALEQMQGFNPGLNGTDRLPLVPSKYSMTVMVFLMMLSFYYFSRHVEKLARTLFLWKIEVHDQKERVYEMRRWNEALVTNMLPEHVARHFLGSKKRDEELYSQTYDEIGVMFASLPNFADFYTEESINNGGIECLRFLNEIISDFDSLLDNPKFRVITKIKTIGSTYMAASGVTPDVNTNGFASSNKEDKSERERWQHLADLADFALAMKDTLTNINNQSFNNFMLRIGMNKGGVLAGVIGARKPHYDIWGNTVNVASRMESTGVMGNIQVVEETQVILREYGFRFVRRGPIFVKGKGELLTFFLKGRDKLATFPNGPSVTLPHQVVDNS", "values": [{"measurement": "Km", "setting": "[7]", "result": 100, "unit": "µM"}]}
